Assay results reported in US20240381871A1, “5-HALOALKOXY-PYRIMIDINE COMPOUNDS AS HERBICIDES” (SYNGENTA CROP PROTECTION AG, priority 2020, published 2024).

Assays:
Type in all cases: in vivo
[1] = test system: Amaranthus retoflexus (AMARE); test: Pre-emergence herbicidal glasshouse test; details: rate 250, evaluated after 13 days, the values are:
Protocol: (§1) Seeds of a variety of test species are sown in standard soil in pots, Amaranthus retoflexus (AMARE), Abutilon theophrasti (ABUTH), Setaria faberi (SETFA), Echinochloa crus-galli (ECHCG) and Ipomoea hederacea (IPOHE). After cultivation for one day (pre-emergence) or after 8 days cultivation (post-emergence) under controlled conditions in a glasshouse (at 24/16° C., day/night; 14 hours light; 65% humidity), the plants are sprayed with an aqueous spray solution derived from the formulation of the technical active ingredient in acetone/water (50:50) solution containing 0.5% Tween 20 (polyoxyethelyene sorbitan monolaurate, CAS RN 9005-64-5). Compounds are applied at 1000 g/ha unless otherwise stated. The test plants are then grown in a glasshouse under controlled conditions in a glasshouse (at 24/16° C., day/night; 14 hours light; 65% humidity) and watered twice daily. After 13 days for pre and post-emergence, the test is evaluated for the percentage damage caused to the plant.

Setaria faberi (SETFA) [2] = test: Pre-emergence herbicidal glasshouse test; details: rate 250, evaluated after 13 days, the values are: phytotoxicity score (1-5)
Protocol: as §1

[3] = test system: Echinochloa crus-galli (ECHCG); test: Pre-emergence herbicidal glasshouse test; details: rate 250, evaluated after 13 days, the values are: phytotoxicity score (1-5)
Protocol: as §1

[4] = test system: Abutilon theophrasti (ABUTH); test: Pre-emergence herbicidal glasshouse test; details: rate 250, evaluated after 13 days, the values are:
Protocol: as §1

[5] = test system: Ipomoea hederacea (IPOHE); test: Pre-emergence herbicidal glasshouse test; details: rate 250, evaluated after 13 days, the values are:
Protocol: as §1

[6] = test system: Amaranthus retoflexus (AMARE); test: Post-emergence herbicidal glasshouse test; details: rate 250, evaluated after 13 days, the values are: phytotoxicity score (1-5 scale)
Protocol: as §1

Setaria faberi (SETFA) [7] = test: Post-emergence herbicidal glasshouse test; details: rate 250, evaluated after 13 days, the values are:
Protocol: as §1

[8] = test system: Echinochloa crus-galli (ECHCG); test: Post-emergence herbicidal glasshouse test; details: rate 250, evaluated after 13 days, the values are: phytotoxicity score (1-5 scale)
Protocol: as §1

[9] = test system: Abutilon theophrasti (ABUTH); test: Post-emergence herbicidal glasshouse test; details: rate 250, evaluated after 13 days, the values are:
Protocol: as §1

[10] = test system: Ipomoea hederacea (IPOHE); test: Post-emergence herbicidal glasshouse test; details: rate 250, evaluated after 13 days, the values are: phytotoxicity score (1-5 scale)
Protocol: as §1

Ipomea hederacea (IPOHE) = test: Comparative post-emergence test, weed control; details: Ipomoea hederacea, 336 h, after 14 days, read-out: IPOHE damage (100=total damage to plant; 0=no damage)
Protocol: (§2) Seeds of test species were sown in standard soil in pots. After cultivation for 10 days (post-emergence) under controlled conditions in a glasshouse (at 24/16° C., day/night; 14 hours light; 65% humidity), the plants were sprayed with an aqueous spray solution derived from the formulation of the technical active ingredient in 0.6 ml acetone and 45 ml formulation solution containing 10.6% Emulsogen EL (Registry number 61791-12-6), 42.2% N-methyl pyrrolidone, 42.2% dipropylene glycol monomethyl ether (CAS RN 34590-94-8) and 0.2% X-77 (CAS RN 11097-66-8). The test plants were then grown in a glasshouse under controlled conditions in a glasshouse (at 24/16° C., day/night; 14 hours light; 65% humidity) and watered twice daily. After 14 days, the test was evaluated (100=total damage to plant; 0=no damage to plant). • Weeds: Ipomea hederacea (IPOHE) • Crops: Zea mays (ZEAMX)

Zea mays (ZEAMX) = test: Comparative post-emergence test, crop damage; details: 336 h, after 14 days, read-out: ZEAMX damage (100=total damage to plant; 0=no damage)
Protocol: as §2

Compound: FC(F)Oc1cnc(Oc2ccccc2-c2cc(C(F)F)no2)nc1 [Compound 1.003]
- Pre-emergence activity AMARE (% phytotoxicity) [1]: 5
- Pre-emergence activity SETFA (% phytotoxicity) (Setaria faberi (SETFA) [2]): 4
- Pre-emergence activity ECHCG (% phytotoxicity) [3]: 2
- Pre-emergence activity ABUTH (% phytotoxicity) [4]: 4
- Pre-emergence activity IPOHE (% phytotoxicity) [5]: 3
- Post-emergence activity AMARE (% phytotoxicity) [6]: 4
- Post-emergence activity SETFA (% phytotoxicity) (Setaria faberi (SETFA) [7]): 3
- Post-emergence activity ECHCG (% phytotoxicity) [8]: 3
- Post-emergence activity ABUTH (% phytotoxicity) [9]: 4
- Post-emergence activity IPOHE (% phytotoxicity) [10]: 4
- pest or weed control at 2 g/ha (Ipomea hederacea (IPOHE)): 10%
- pest or weed control at 8 g/ha (Ipomea hederacea (IPOHE)): 20%
- pest or weed control at 60 g/ha (Ipomea hederacea (IPOHE)): 30%
- pest or weed control at 125 g/ha (Ipomea hederacea (IPOHE)): 70%
- pest or weed control at 250 g/ha (Ipomea hederacea (IPOHE)): 70%
- pest or weed control at 500 g/ha (Ipomea hederacea (IPOHE)): 90%
- plant injury at 2 g/ha (Zea mays (ZEAMX)): 0%
- plant injury at 8 g/ha (Zea mays (ZEAMX)): 0%
- plant injury at 60 g/ha (Zea mays (ZEAMX)): 0%
- plant injury at 125 g/ha (Zea mays (ZEAMX)): 0%
- plant injury at 250 g/ha (Zea mays (ZEAMX)): 0%
- plant injury at 500 g/ha (Zea mays (ZEAMX)): 10%

Compound: FC(F)Oc1cnc(Oc2cccc(Cl)c2-c2cc(C(F)F)no2)nc1 [Compound 1.004]
- Pre-emergence activity AMARE (% phytotoxicity) [1]: 5
- Pre-emergence activity SETFA (% phytotoxicity) (Setaria faberi (SETFA) [2]): 5
- Pre-emergence activity ECHCG (% phytotoxicity) [3]: 4
- Pre-emergence activity ABUTH (% phytotoxicity) [4]: 4
- Pre-emergence activity IPOHE (% phytotoxicity) [5]: 5
- Post-emergence activity AMARE (% phytotoxicity) [6]: 4
- Post-emergence activity SETFA (% phytotoxicity) (Setaria faberi (SETFA) [7]): 4
- Post-emergence activity ECHCG (% phytotoxicity) [8]: 4
- Post-emergence activity ABUTH (% phytotoxicity) [9]: 4
- Post-emergence activity IPOHE (% phytotoxicity) [10]: 4
- pest or weed control at 2 g/ha (Ipomea hederacea (IPOHE)): 20%
- pest or weed control at 8 g/ha (Ipomea hederacea (IPOHE)): 50%
- pest or weed control at 60 g/ha (Ipomea hederacea (IPOHE)): 70%
- pest or weed control at 125 g/ha (Ipomea hederacea (IPOHE)): 70%
- pest or weed control at 250 g/ha (Ipomea hederacea (IPOHE)): 90%
- pest or weed control at 500 g/ha (Ipomea hederacea (IPOHE)): 90%
- plant injury at 2 g/ha (Zea mays (ZEAMX)): 0%
- plant injury at 8 g/ha (Zea mays (ZEAMX)): 0%
- plant injury at 60 g/ha (Zea mays (ZEAMX)): 0%
- plant injury at 125 g/ha (Zea mays (ZEAMX)): 10%
- plant injury at 250 g/ha (Zea mays (ZEAMX)): 20%
- plant injury at 500 g/ha (Zea mays (ZEAMX)): 40%

Compound: FC(F)Oc1cnc(Oc2cccc(Br)c2-c2cc(C(F)F)no2)nc1 [Compound 1.005]
- Pre-emergence activity AMARE (% phytotoxicity) [1]: 5
- Pre-emergence activity SETFA (% phytotoxicity) (Setaria faberi (SETFA) [2]): 5
- Pre-emergence activity ECHCG (% phytotoxicity) [3]: 3
- Pre-emergence activity ABUTH (% phytotoxicity) [4]: 3
- Pre-emergence activity IPOHE (% phytotoxicity) [5]: 4
- Post-emergence activity AMARE (% phytotoxicity) [6]: 4
- Post-emergence activity SETFA (% phytotoxicity) (Setaria faberi (SETFA) [7]): 4
- Post-emergence activity ECHCG (% phytotoxicity) [8]: 3
- Post-emergence activity ABUTH (% phytotoxicity) [9]: 4
- Post-emergence activity IPOHE (% phytotoxicity) [10]: 5
- pest or weed control at 2 g/ha (Ipomea hederacea (IPOHE)): 30%
- pest or weed control at 8 g/ha (Ipomea hederacea (IPOHE)): 20%
- pest or weed control at 60 g/ha (Ipomea hederacea (IPOHE)): 40%
- pest or weed control at 125 g/ha (Ipomea hederacea (IPOHE)): 70%
- pest or weed control at 250 g/ha (Ipomea hederacea (IPOHE)): 90%
- pest or weed control at 500 g/ha (Ipomea hederacea (IPOHE)): 80%
- plant injury at 60 g/ha (Zea mays (ZEAMX)): 10%
- plant injury at 125 g/ha (Zea mays (ZEAMX)): 20%
- plant injury at 250 g/ha (Zea mays (ZEAMX)): 30%
- plant injury at 500 g/ha (Zea mays (ZEAMX)): 30%
